From patent US20150336919A1, “Sesquiterpene lactone-based pharmaceutical composition for treating gastrointestinal diseases” (CHO DANG PHARM. CO., LTD., priority 2012, published 2015) come the findings set out here.

In series [1] the test system is Chinese hamster lung (CHL) cell. Put plainly: Chromosomal aberration test using Chinese hamster lung (CHL) cell. In kind it is cell-based. To be noted: for Chromosomal aberration test result: dose not given. An excerpt: For measuring the induction of chromosomal aberration, the chromosomal aberration test has been carried out using Chinese hamster lung (CHL) cell. 2 kinds of methods have been adopted, such as, metabolic activation method (+S9) using metabolic activation system and direct method (−S9) without metabolic activation system.
For determining the test material reacting concentration, the cell growth inhibition test has been carried out. The test material has been dissolved and diluted in dimethyl sulfoxide (DMSO). Regardless of metabolic activation system, 12 concentration steps (2.43, 4.87, 9.75, 19.5, 39.1, 78.1, 156.3, 312.5, 625, 1250, 2500, 5000 μg/ml) of test material have been prepared. The cells have been cultured for 24 hours as the same way of main test. […] The medium has been further cultured for 18 hours.
Based upon the data of cell growth inhibition test, maximum concentration has been determined when the cell growth has been inhibited up to 50% as the relative cell numbers.
Regardless of metabolic activation system, the test materials have been prepared after 24 hours from the initiation of test. Then, the number of chromosomal aberration has been counted.

Series [2] deals with HCl-Ethanol inducing gastritis model. Put plainly: HCl-Ethanol inducing gastritis model. In kind it is in vivo, white rats. As for the experimental part:
After white rats have been fasted for 24 hours, CD-101, CD-102 and CD-103 compound have been orally administered according to method disclosed in Mizui et al., Jap. J. Pharmacol. 33: pp. 939-945 (1983). After 1 hour, 1.5 ml of 60% ethanol including 150 mM HCl has been orally administered to each animal. 1 hour later, animals have been sacrificed by cervical dislocation. After removing the stomach, the stomach has been fixed by injection of 13 ml of 2% formalin for 1 hour. After fixed stomach has been spread out, the lesion area has been measured using the photo by digital camera. Computer program Image J 1.38 (NIH, Bethesda, Md.) has been applied for measuring gastric lesion area (mm^2) The lesion inhibition rate has been calculated according to following equation. Further, 50% effective dose (ED50) has been also calculated using regression analysis.
Lesion inhibition rate(%)={gastric lesion area of control group(mm^2)−gastric lesion area of drug administration group(mm^2)}/gastric lesion area of control group(mm^2)×100

The test system of series [3] is indomethacin inducing stomach ulcer model. Put plainly: Indomethacin inducing stomach ulcer model. The note with it: oral. In kind it is in vivo, white rats. As for the experimental part: After white rats have been fasted for 24 hours, CD-101, CD-102 and CD-103 compound have been orally administered according to method disclosed in Yamasaki et al., Jap. J. Pharmacol. 49: pp. 441-448 (1989). After 1 hour, indomethacin (50 mg/kg) has been orally administered to each animal After fasting for 5 hours, animals have been sacrificed by cervical dislocation. After removing the stomach, the stomach has been fixed by injection of 13 ml of 2% formalin for 1 hour. After fixed stomach has been spread out, the lesion area has been measured using the photo by digital camera. Computer program Image J 1.38 (NIH, Bethesda, Md.) has been applied for measuring gastric lesion area (mm^2) The lesion inhibition rate and 50% effective dose (ED50) have been calculated as the same manner of HCl-EtOH model.

The mark [4] stands for this setting: +S9 (metabolic activation method).

Consider `C=C1C(=O)O[C@@H]2[C@@H]3[C@@H](CC[C@@]3(C)O)[C@](C)(OC)CC[C@@H]12` [CD-103], for which the “Chromosomal aberration test results” value is on record as “negative” in series [1] (+S9, dose 2.5 μg/kg); “negative” in series [1] (+S9, dose 5 μg/kg); “negative” in series [1] (−S9, dose 0.625 μg/kg); “negative” in series [1] (−S9, dose 1.25 μg/kg). In series [1] (CHL cell), the “Induction of chromosomal aberration” value is recorded as “do not induce the chromosomal aberration”.
Take `CC1=C2C3OC(=O)[C@@H](C)[C@@H]3CC[C@@]2(C)C=CC1=O` (stereo partly shown) [reference compound]: the Lesion inhibition rate result in series [2] (Table 2, ineffective compounds, dose not given) was “no effect”.
For `C=C1C(=O)O[C@@H]2/C=C(\C)CCC(O)C(C)(O)C[C@@H](OC(C)=O)C12` (stereo partly shown) [reference compound], the “Chromosomal aberration test result” value in series [1] (setting [4]) and in series [1] (−S9 (direct method)) was “positive positive” throughout.
The inhibition is how much of the control response was suppressed. Regarding `C=C1C(=O)O[C@@H]2[C@@H]3[C@@H](CC[C@@]3(C)O)C(=C)CC[C@@H]12` [CD-102], the inhibition at 1 mg/kg in series [2] (Rattus norvegicus, oral, dose 1 mg/kg, read-out: Lesion inhibition rate) was 43%; in series [3] (Rattus norvegicus, dose 1 mg/kg, read-out: Lesion inhibition rate), 41.6%. Moreover, the inhibition at 3 mg/kg in series [2] (Rattus norvegicus, oral, dose 3 mg/kg, read-out: Lesion inhibition rate) worked out at 70.4%; in series [3] (Rattus norvegicus, dose 3 mg/kg, read-out: Lesion inhibition rate), 56.1%. Further, the inhibition at 10 mg/kg is 94.9% in series [2] (Rattus norvegicus, oral, dose 10 mg/kg, read-out: Lesion inhibition rate) and 77.2% in series [3] (Rattus norvegicus, dose 10 mg/kg, read-out: Lesion inhibition rate). Further, the “50% effective dose (ED50)” value worked out at 1.31 mg/kg in series [2] (oral, regression analysis) and 1.82 mg/kg in series [3] (regression analysis). Moreover, the “Chromosomal aberration test results” value in series [1] (+S9, dose 5 μg/kg) is given as “negative”; in series [1] (+S9, dose 20 μg/kg) it was “negative”; in series [1] (−S9, dose 1.25 μg/kg), “negative”; in series [1] (−S9, dose 5 μg/kg) it was “negative”. Besides, the Cytotoxicity entry in series [1] (CHL cell) is on record as “neither cytotoxicity”. The “Induction of chromosomal aberration” value in series [1] (CHL cell) is recorded as “do not induce the chromosomal aberration”.
Regarding `C=C1C(=O)O[C@@H]2[C@@H](O)[C@]3(C)CC[C@H]3[C@](C)(OC)CC[C@@H]12` [CD-101], the “Chromosomal aberration test results” value in series [1] (+S9, dose 20 μg/kg) is recorded as “negative”; in series [1] (+S9, dose 40 μg/kg), “negative”; in series [1] (−S9, dose 5 μg/kg), “negative”. Also, in series [1] (CHL cell), the “Induction of chromosomal aberration” value is “do not induce the chromosomal aberration”.
In the case of `CO[C@@]12[C@H](COC(N)=O)C3=C(C(=O)C(C)=C(N)C3=O)N1C[C@@H]1N[C@@H]12` [Mitomycin C, reference compound], in series [1] (−S9, dose 0.5 μg/kg), the “Chromosomal aberration test results” value is listed as “positive”.
`CC(=O)O[C@@H]1/C=C(\C)CCC/C(C)=C/[C@H]2OC(=O)[C@H](CN(C)C)C12` (stereo partly shown) [reference compound]: the “Chromosomal aberration test result” value in series [1] (setting [4]) and in series [1] (−S9 (direct method)) was “positive positive” throughout.
As to `C=C1C(=O)O[C@@H]2/C=C(\C)CC/C=C(\C)C[C@@H](OC(C)=O)C12` (stereo partly shown) [reference compound], the “Chromosomal aberration test result” value in series [1] (setting [4]) and in series [1] (−S9 (direct method)) was “positive positive” each time.
